Measured values as given in US10010559B2, “Use of derivatives containing C-O-P bonds in patients with kidney failure” (LABORATORIOS SANIFIT, S.L., priority 2013, dated 2018).

How the values were obtained:
[1] = tested on: tissue calcification in chronic renal impairment model (adenine); experiment: Adenine model, bolus-type s.c. IP6; assay type: in vivo, Wistar rats; settings: s.c. bolus 3, 10 and 30 mg/kg, 28 days, adenine rats
Method: Objective: to determine the efficacy of IP6 in the prevention of tissue calcification in an animal model of chronic renal impairment (adenine).
Experimental: CKD was induced in 4 groups (n=12) of male Wistar rats by oral (p.o.) treatment with adenine (600 mg/kg/day) daily for 10 days. After treatment with adenine, the rats received alpha-calcidol at a dose of 300 ng/kg (3×/week, p.o.) until day 28. From day 0 until sacrifice (day 28), the animals were treated with a 2 ml/kg s.c. bolus of 0, 3, 10 and 30 mg/kg IP6. At each treatment, 3 additional animals were included to evaluate the […] for IP6. After 28 days the aorta, heart and right kidney were collected and the tissue calcium content determined.

[2] = tested on: tissue calcification in chronic renal impairment model (5/6 nephrectomised rats); experiment: 5/6 nephrectomy model, IP6 i.v. bolus; assay type: in vivo, SD rats; settings: i.v. bolus 1 or 5 mg/kg, 8 weeks
Method: Objective: to determine the efficacy of intravenous IP6 in the prevention of tissue calcification in a chronic renal impairment model (5/6 nephrectomised rats).
Experimental: 48 SD rats were 5/6 nephrectomised by complete right lateral nephrectomy and ⅔ partial nephrectomy of the left kidney. 16 animals per group were treated intravenously (bolus) with 2 ml/kg saline, 1 mg/kg IP6 or 5 mg/kg IP6. The animals received a phosphate-rich diet (1% Ca, 1.2% P) containing 20% lactose. After 8 weeks the aorta, heart and remaining ⅓ kidney were collected and the tissue calcium content determined.

[3] = PK profile of IP6 by 4 h intravenous infusion in normal and uraemic rats; assay type: in vivo, Wistar rats
Method: Objective: to evaluate the PK profile for IP6 in rats with normal kidney function and non-dialysed rats with renal impairment by intravenous infusion.
Experimental: Wistar rats with normal kidney function were treated daily with a dose of 10 or 50 mg/kg IP6 by intravenous fusion over 4 h. Plasma samples were obtained at different timepoints up to 4 hours on day 0. The animals were then treated orally with 600 mg/kg (p.o.) adenine for 10 days to induce renal impairment. The animals were treated with alpha-calcidol (300 ng/kg) on days 11 and 13 and plasma samples were collected at different timepoints up to 4 hours on day 14. The plasma IP6 levels were quantified for both groups.

[4] = HAP crystallisation induction period (synergy with other treatments); assay type: physicochemical
Method: Objective: to evaluate the potential synergies between the effects of IP6 and the effects of other treatments for renal impairment.
Experimental: hydroxyapatite (HAP) was crystallised by mixing appropriate concentrations of calcium and phosphate at pH 7.4. The effect of cinacalcet and sevelamer was simulated by suitably modifying the calcium and phosphate concentrations. The induction period (time required for HAP to begin to crystallise) was recorded as the analytical signal.

[5] = tested on: tissue calcification in uraemic animals; experiment: Adenine model, non-bolus intravascular infusion of IP6; assay type: in vivo, Wistar rats
Method: Objective: to determine the efficacy of IP6 as a non-bolus type administration in the prevention of tissue calcification in uraemic animals.
Experimental: CKD was induced in 2 groups (n=12) of male Wistar rats by oral (p.o.) treatment with adenine (600 mg/kg/day) daily for 10 days. After treatment with adenine, the rats received alpha-calcidol at a dose of 300 ng/kg (3×/week, p.o.) until day 28. From day 0 until sacrifice (day 28), the animals were treated with an intravascular infusion of 50 mg/kg IP6 or saline for 4 hours. After 28 days the aorta and heart were collected and the tissue calcium content determined.

[6] = Calcium chelation by IP6 in vitro; assay type: physicochemical; settings: 2.5 mM calcium in 0.15 M NaCl, pH 7.40
Method: Objective: to evaluate the ionic calcium chelation potential of IP6. Experimental: a 2.5 mM of calcium in NaCl 0.15 M, pH 7.40, was pipetted with increasing concentrations of IP6. The amount of free ionic calcium was measured potentiometrically using a calcium-selective electrode and a potentiometer.

[7] = tested on: ECG and serum ionic calcium; experiment: Cardiovascular function after 2 h intravascular infusion of IP6 in conscious dogs (telemetry); assay type: in vivo; settings: for peak IP6 level: dogs
Method: Objective: to determine the effects of a non-bolus type administration of IP6 on the electrocardiogram (ECG) and serum ionic calcium concentrations.
Experimental: 4 male dogs were treated with 3, 10 and 30 mg/kg IP6 by infusion for 2 h in a Latin square design. A washout period of one week was performed between doses. ECGs were measured telemetrically at 1 h and 20 minutes prior to infusion and 5, 15, 30, 45 minutes, 1, 2, 6 and 24 h post-infusion. In a second stage, blood samples were taken for PK, for the same doses, at 20 minutes prior to infusion and 5, 15, 30 minutes and 1, 1.5, 2, 3 and 6 h post-infusion. In this case the washout period between doses was 2 days. […]

[8] = tested on: vitamin D-induced cardiovascular calcification; experiment: Inhibition of vit D-induced (75,000 IU/kg x5) cardiovascular calcification by intravenous IP6; assay type: in vivo, Sprague Dawley (SD) rats
Method: Objective: to evaluate the efficacy of intravenous IP6 in inhibiting vitamin D-induced cardiovascular calcification in rats. Experimental: male Sprague Dawley (SD) rats were divided into 7 groups and IP6 was administered intravenously daily for 14 days at a dose of 0, 0.05, 0.1, 0.5, 1, 5 and 10 mg/kg. Calcification was induced by oral administration of 75,000 IU/kg vitamin D on treatment days 3 to 7. Samples were collected. On day 14 the aortas and hears of the animals were collected to quantify calcification.

[9] = tested on: serum ionic calcium, ECG and clinical signs; experiment: Cardiovascular function after bolus intravenous IP6 in conscious dogs (telemetry); assay type: in vivo
Method: Objective: to examine the effects of a bolus-type administration of IP6 in serum ionic calcium, ECG and clinical signs in dogs. Experimental: 4 male dogs, 2 per dose, were injected with 10, 15 and 30 mg/kg. Two washout days were introduced between the different doses. The ECGs were recorded telemetrically. Blood ionic calcium concentrations were determined on different days to the ECG measurements.

[10] = In vitro affinity (adsorption) of IP6 for hydroxyapatite; assay type: binding
Method: Objective; the objective of this study is to analyse the affinity of IP6 for the target thereof, thereby obtaining a curve for the affinity of IP6 for HAP.
[…] The total quantity of IP6 bound to the surface of the target (HAP) was quantified.
To characterise the behaviour of IP6 binding, the EC50 and Emax for the adsorption thereof on HAP were calculated. This was performed using a non-linear regression model (Log [agonist] vs. response−slope variable; GraphPad Prism software).

[11] = PK profile of IP6 s.c. in rats with normal and diminished kidney function; assay type: in vivo, Wistar rats
Method: Objective: to evaluate the PK profile for rats with normal kidney function and renal impairment. Experimental: a single s.c. dose (10 mg/kg) was administered to rats with normal kidney function. Plasma samples were obtained at different timepoints up to 60 minutes. A different group of Wistar rats received oral treatment with adenine 600 mg/kg (p.o.) for 10 days to induce renal impairment. Alpha-calcidol (300 ng/kg) was administered on days 11 and 13 and plasma samples were collected at different timepoints up to 60 minutes on day 14. The plasma IP6 concentrations were quantified for both groups.

[12] = Administration of IP6 via the dialysis system (closed circuit, human blood); assay type: in vitro ADME
Method: Objective: to establish the dialysability of IP6 in human blood using a real dialysis system and the effect thereof on calcium chelation.
Experimental: 1 liter of human blood obtained from patients undergoing therapeutic phlebotomy was introduced into a recipient forming a closed dialysis circuit to simulate a real dialysis. Two experiments were performed (administration pre- and post-dialyser, both in bypass and dialysis mode), administering IP6 to human blood for 20 minutes when outside the recipient (which simulated the animal or human body) and circulating via the dialysis circuit. The recipient containing 1 liter of whole blood at a controlled temperature of 37° C. is connected to the dialysis apparatus to form a closed circuit. The dialysis apparatus will be connected for 1 hour (dialysis fluid flow of 500 ml/min and blood flow of 350 ml/min). Blood samples are collected at different times to determine the IP6 and ionic calcium levels.

[13] = tested on: vit D-induced cardiovascular calcification; experiment: Inhibition of vit D-induced (300,000 IU/kg x3) cardiovascular calcification by s.c. IP6; assay type: in vivo, SD rats
Method: Objective: to evaluate the efficacy of s.c. IP6 for inhibiting vit D-induced cardiovascular calcification in rats. Experimental: male SD rats were divided into 9 groups. Two of said groups (sham and control groups) received s.c. saline 2 ml/kg; 6 groups received s.c. […] One group was treated with a s.c. Alzet pump loaded with 200 mg/ml IP6. Calcification was induced by oral administration of 300,000 IU/kg vitamin D (2 ml/kg) for 3 days starting on treatment day 3. […] The calcium content in heart, aorta and kidneys was determined after treatment for 7 days.

[14] = In vitro binding kinetics of IP6 to HAP; settings: 130 mg HAP
Method: Objective: to analyse the binding rate of IP6 to HAP.
Experimental: 130 mg HAP was incubated (in triplicate) with 7.6 μM IP6, at 37° C., pH 7.4, for different time intervals while stirring continuously.

[15] = intravascular infusion 50 mg/kg for 4 hours, day 0-28, uraemic rats
[16] = i.v. between 1 and 10 mg/kg daily for 14 days
[17] = normal Wistar rats, s.c. 10 mg/kg
[18] = without IP6, drug effect simulated by modifying calcium and phosphate concentrations

## O=P(O)(O)O[C@H]1[C@H](OP(=O)(O)O)[C@@H](OP(=O)(O)O)[C@H](OP(=O)(O)O)[C@@H](OP(=O)(O)O)[C@H]1OP(=O)(O)O [IP6, inositol hexaphosphate]
[1]
  calcification inhibition (aorta, heart, right kidney): no evidence of calcification inhibition
[2]
  calcification inhibition (aorta, heart, remaining kidney): no evidence of calcification inhibition
[3]; normal rats, 10 mg/kg i.v. infusion over 4 h
  peak plasma concentration: 8.4 µM
[3]; normal rats, 50 mg/kg i.v. infusion over 4 h
  peak plasma concentration: 68.4 µM
[3]; uraemic rats, 10 mg/kg i.v. infusion over 4 h
  peak plasma concentration: 2.8 µM
[3]; uraemic rats, 50 mg/kg i.v. infusion over 4 h
  peak plasma concentration: 24.6 µM
[3]; uraemic rats, 50 mg/kg infusion, from hour 1 to hour 4
  time approximately constant plasma concentration maintained: 3 h
[4]; 11.4 μM IP6, pH 7.4, control 8 minutes
  induction period of HAP crystallisation: 28 min
[4]; IP6 0-11.4 μM with simulated cinacalcet or sevelamer
  combination effect on induction period: clear synergistic effect
[5]; [15]
  reduction in average calcification in the aorta: 80%
  reduction in average calcification in the heart: 85%
[5]; uraemic rats, due to high metabolic rate
  reduction of plasma IP6 levels by the end of the experiment: 90%
[6]
  IP6 concentration at saturation of calcium chelation: 3788 µM
  IP6 concentration with significant ionic calcium chelation: about 379 μM
[7]; 3 mg/kg infusion 2 h
  peak IP6 level: 27 µM
[7]; 10 mg/kg infusion 2 h
  peak IP6 level: 150 µM
[7]; 30 mg/kg infusion 2 h
  peak IP6 level: 482 µM
[7]; infusion for 2 h, 3, 10 and 30 mg/kg, any dose
  state of health, weight, cardiorespiratory function, ECG, body temperature, total and free potassium in blood: relatively unaffected
[7]; infusion of 3, 10 and 30 mg/kg for 2 h
  overall effects on dogs: no negative effects
[8]; i.v. 0.05 to 0.5 mg/kg daily for 14 days
  effect on mineral content of the aorta and heart: did not affect
[8]; [16]
  reduction of calcification in aorta: up to 60%
  reduction of calcification in heart: ≤ 68%
[9]; i.v. bolus above 15 mg/kg, becoming significant above 30 mg/kg
  ECG findings: mild tachycardia and prolonged QTc interval
[9]; i.v. bolus, correlated with prolonged QTc
  decrease in ionic calcium: 30%
[10]
  Emax for adsorption on HAP (saturation): 6.42 mg/g
[10]; 300 mg HAP, 7.6 μM IP6, 8 hours
  maximum adsorption of IP6 on the HAP surface: 4.8 mg
[10]; 37° C., pH 7.4
  IP6 concentration at saturation of adsorption on HAP: ≥ 7.6 µM
[11]; [17]
  duration of measurable plasma levels: at least 30 minutes
  peak plasma concentration: 7.4 µM
  time of peak concentration post-administration: 15 min
[11]; plasma, rats
  metabolites detected: Lower inositol phosphates (IP5, IP4, IP3, IP2, IP1) and inositol
[11]; uraemic rats (adenine), s.c. 10 mg/kg
  peak plasma concentration: 1.8 µM
[12]; administration via dialysis line for 20 minutes
  dialysability of IP6: not lost via the dialysis membrane
[12]; apparatus in bypass mode
  effect on free calcium: chelates (sequesters) free calcium
[12]; apparatus in dialysis mode
  effect on ionic calcium: ionic calcium levels are restored
[13]; s.c. 60 mg/kg
  efficacy (inhibition of calcification): approximately 60%
[13]; s.c. 100 mg/kg
  efficacy (inhibition of calcification): approximately 60%
[13]; s.c., aorta
  minimum dose that produced a significant effect on calcification: 10 mg/kg
[14]; 7.6 μM IP6, 37° C., pH 7.4
  time to adsorption maximum: 60 min
[14]; after 5 minutes, 7.6 μM IP6
  fraction of maximum binding achieved: Around 80%

## sevelamer [reference compound]
[4]; [18]
  induction period of HAP crystallisation: 15 min

## C[C@@H](NCCCc1cccc(C(F)(F)F)c1)c1cccc2ccccc12 [cinacalcet, reference compound]
[4]; [18]
  induction period of HAP crystallisation: 14 min

## O=P([O-])([O-])OP(=O)([O-])[O-].[Na+].[Na+].[Na+].[Na+] [pyrophosphate, sodium pyrophosphate, reference compound]
[13]; s.c., at higher doses than IP6
  efficacy on calcification: good efficacy
